Test results from patent US6020328A, “20-keto-11β-arylsteroids and their derivatives having agonist or antagonist hormonal properties” (Research Triangle Institute, priority 1998, dated 2000).
Where “and” joins values, the source holds several entries; their conditions need not be identical. Equal entries are not always repeated. One block for each compound: values may come before it.

How the values were obtained:
progestin receptor (hPR) = assay: progestin receptor binding; settings: cytosol from human T-47D breast cells; [3H]-R5020; read-out: Receptor Binding Affinity hPR IC50
Text: However, the receptors were of human origin and a different radioligand was used. Thus, for progestin receptor binding the receptor was obtained in cytosol from human T-47D breast cells and [^3 H]-R5020 was used as the radioligand. Data are expressed as IC50 values, i.e., the concentration of compound that inhibits the radioligand binding by 50%.

Human T-47D breast cells [1] = assay: T-47D cell proliferation, antagonist format (inhibition of 0.15 nM R5020-mediated proliferation); type: cell-based; settings: T47D; for EC50: inhibition of 0.15 nM R5020-mediated proliferation, N.D. not detected; for Emax: maximum % inhibition, 0.15 nM R5020, read-out: Cell Proliferation Antagonist maximum % Inhib.
Protocol: (§1) Human T-47D breast cells grown in nutrient media were incubated with the standard progestin R5020 alone or with R5020 plus test compound and then assessed by standard procedures for proliferation using incorporation of [^3 H]-thymidine as the measurement. […] The maximum % inhibition (a measure of the efficacy of the compounds) is also given. In the agonist format of this assay the compounds were tested at concentrations ranging from 0.01 to 10 nM and the maximum % stimulation at any dose is listed in Table 2. […] However, the presence of a very polar hydroxyl group in the 17α-position greatly diminishes antiprogestational activity and this holds even when the OH is separated from the 17-carbon atom by a methylene group.

immature female rabbits = assay: anti-estrogenic activity in vivo (uterine weight); set-up: species or system rabbit
Protocol: Steril. 52: 1055-1060 (1989). […] The weight of uteri from untreated immature rabbits was increased from 246±87 (S.E.) mg with no estradiol to 1402±104 mg with estradiol alone. Concurrent treatment of rabbits with estradiol and 10 mg/day of 17α-acetoxy-11β-(4-(N-piperidino)phenyl)-19-norpregna-4,9-diene-3,20-dione reduced the uterine weights to 998±98 mg. Likewise 17α-acetoxy-11β-(4-N-pyrrolidino)phenyl)-19-norpregna-4,9-diene-3,20-dione at 10 mg/day reduced the uterine weight to 919±115 mg, and 17α-acetoxy-11β-(1-methyl-5-indolyl)-19-norpregna-4,9-diene-3,20-dione reduced uterine weight to 956±115 mg at the same dose.

rabbits [2] = assay: McGinty test (agonist, test compound alone); type: in vivo, rabbit
Protocol: (§2) Progestational activity and antiprogestational activity were determined in rabbits by means of the McGinty test (test compound alone, procedure of McGinty et al., Endocrinology, 24:829-832 (1939)) or anti-McGinty test (test compound plus progesterone, procedure of Tamara et al., Jpn. J. Fertil. Steril. 24:48-81 (1979)). Results were scored according to McPhail (McPhail, J. Physiol., 83:146 (1934)).

[3] = system: Ishikawa human endometrial adenocarcinoma cell line; assay: anti-estrogenic activity in Ishikawa cells (block of estrogen-stimulated alkaline phosphates activity); type: cell-based; settings: in words, concentration not given
Human T-47D breast cells [4] = assay: T-47D cell proliferation, agonist format; type: cell-based; settings: T47D, 0.01 to 10 nM, maximum at any dose, read-out: Cell Proliferation Agonist maximum % Stim.
Protocol: as §1

rabbits [5] = assay: anti-McGinty test (antagonist, test compound plus progesterone); type: in vivo, rabbit
Protocol: as §2

immature male rats = assay: antiglucocorticoid activity in vivo (thymus weight); set-up: species or system rat; settings: 6 μg dexamethasone alone per day, 7 days
Protocol: The ability of the compounds to block the effects of dexamethasone (6 μg per day for 7 days) on thymus weight of immature male rats was assessed.

[6] = system: immature New Zealand white rabbits; assay: anti-Clauberg assay for oral antiprogestational activity; type: in vivo, rabbit; settings: with progesterone SC
Protocol: In this assay immature New Zealand white rabbits were primed with estrogen by treatment with estradiol for six days. They were then given progesterone subcutaneously (SC) and the test compound (orally) for 5 days. On the day following the treatment, the uteri were excised and examined histologically. The endometrial response was graded by the method of McPhail and the % inhibition was determined at each dose. Statistical analysis provides for an ED50 value.

SMILES: CC(=O)O[C@]1(C(C)=O)CC[C@H]2[C@@H]3CCC4=CC(=O)CCC4=C3[C@@H](c3ccc(N4CCCC4)cc3)C[C@@]21C [I 4-(N-pyrrolidino) H O H --O--CO--CH3 H, 17α-Acetoxy-11β-[4-(N-pyrrolidino)phenyl]-19-norpregna-4,9-diene-3-20-dione]
- IC50 (progestin receptor (hPR)): 800 pM
- EC50 (Human T-47D breast cells [1]): 400 pM
- Emax (Human T-47D breast cells [1]): 108%
- uterine weight (immature female rabbits; test compound 10 mg/day oral + 5 μg estradiol per day): 919 ± 115 mg
- McPhail Index, McGinty Assay (Agonist) (rabbits [2]; dose 0.3 micrograms): 0 +/- 0
- McPhail Index, McGinty Assay (Agonist) (rabbits [2]; dose 3 micrograms): 0 +/- 0
- McPhail Index, McGinty Assay (Agonist) (rabbits [2]; dose 30 micrograms): 0 +/- 0
- anti-estrogenic activity in the Ishikawa cell assay [3]: inactive
- Emax (Human T-47D breast cells [4]): 1%

SMILES: COc1ccc([C@H]2C[C@@]3(C)[C@@H](CC[C@]3(OC(C)=O)C(C)=O)[C@@H]3CCC4=CC(=O)CCC4=C32)cc1 [I 4-CH3 O H O H --O--CO--CH3 H, 17α-Acetoxy-11β-(4-methoxyphenyl)-19-norpregna-4,9-diene-3,20-dione]
- IC50 (progestin receptor (hPR)): 800 pM
- EC50 (Human T-47D breast cells [1]): 300 pM
- Emax (Human T-47D breast cells [1]): 119%
- McPhail Index, McGinty Assay (Agonist) (rabbits [2]; dose 0.3 micrograms): 1.5 +/- 0.2
- McPhail Index, McGinty Assay (Agonist) (rabbits [2]; dose 3 micrograms): 1.5 +/- 0.6
- McPhail Index, McGinty Assay (Agonist) (rabbits [2]; dose 30 micrograms): 1.5 +/- 0.7
- progestational activity, McGinty test (rabbits [2]; in words): both agonist and antagonist properties
- Emax (Human T-47D breast cells [4]): 2%
- antiprogestational activity, anti-McGinty test (rabbits [5]; in words): both agonist and antagonist properties

SMILES: CC(=O)O[C@]1(C(C)=O)CC[C@H]2[C@@H]3CCC4=CC(=O)CCC4=C3[C@@H](c3ccc(N(C)C)c(F)c3)C[C@@]21C [I 4-Me2 N 3-F O H --O--CO--CH3 H, 17α-Acetoxy-11β-(4-N,N-Dimethylamino-3-fluorophenyl)-19-norpregna4,9-diene-3,20-dione]
- IC50 (progestin receptor (hPR)): 2200 pM
- EC50 (Human T-47D breast cells [1]): 700 pM
- Emax (Human T-47D breast cells [1]): 101%
- McPhail Index, McGinty Assay (Agonist) (rabbits [2]; dose 0.3 micrograms): 2.5 +/- 0.2
- McPhail Index, McGinty Assay (Agonist) (rabbits [2]; dose 3 micrograms): 3.0 +/- 0.3
- McPhail Index, McGinty Assay (Agonist) (rabbits [2]; dose 30 micrograms): 3.6 +/- 0.1
- Emax (Human T-47D breast cells [4]): 30%
- McPhail Index, McGinty Assay (Antagonist) (rabbits [5]; rabbit, in vivo): 3.6 +/- 0.1 and 3.3 +/- 0.3 and 2.8 +/- 0.3

SMILES: CC(=O)[C@H]1CC[C@H]2[C@@H]3CCC4=CC(=O)CC[C@]4(C)[C@H]3CC[C@]12C [Progesterone, reference compound]
- IC50 (progestin receptor (hPR)): 3300 pM
- McPhail Index, McGinty Assay (Agonist), progesterone (rabbits [2]; progesterone control, printed under first dose column, own dose not stated): 2.45 +/- 0.14
- McPhail Index, McGinty Assay (Antagonist), progesterone (Standard) (rabbits [5]; progesterone standard, printed under first dose column, own dose not stated): 2.45 +/- 0.14

SMILES: C[C@@H]1C[C@H]2[C@@H]3CCC4=CC(=O)C=C[C@]4(C)[C@@]3(F)[C@@H](O)C[C@]2(C)[C@@]1(O)C(=O)CO [dexamethasone, reference compound]
- thymus weight (immature male rats): 65 ± 8 mg

SMILES: C[C@]12CC[C@@H]3c4ccc(O)cc4CC[C@H]3[C@@H]1CC[C@@H]2O [estradiol, reference compound]
- uterine weight (immature female rabbits; estradiol alone, 5 μg per day): 1402 ± 104 mg

SMILES: CC#C[C@]1(O)CC[C@H]2[C@@H]3CCC4=CC(=O)CCC4=C3[C@@H](c3ccc(N(C)C)cc3)C[C@@]21C [mifepristone, reference compound]
- ED50, anti-Clauberg assay ([6]; 5 days): 4.14 mg/day
- effectiveness in inhibiting the endometrial response [6]: 67%

The next lines start with results.

- IC50 (progestin receptor (hPR)): 43600 pM
SMILES: CC(=O)[C@@]1(CO)CC[C@H]2[C@@H]3CCC4=CC(=O)CCC4=C3[C@@H](c3ccc(N(C)C)cc3)C[C@@]21C [I 4-Me2 N H O H --CH2 --OH H, 11β-(4-(N,N-dimethylamino)phenyl)-17α-hydroxymethyl-19-norpregna-4,9-diene-3,20-dione]
- Emax (Human T-47D breast cells [1]): 23%
- McPhail Index, McGinty Assay (Agonist) (rabbits [2]; dose 0.3 micrograms): 0 +/- 0
- McPhail Index, McGinty Assay (Agonist) (rabbits [2]; dose 3 micrograms): 0 +/- 0
- McPhail Index, McGinty Assay (Agonist) (rabbits [2]; dose 30 micrograms): 0 +/- 0
- Emax (Human T-47D breast cells [4]): 11%
- McPhail Index, McGinty Assay (Antagonist) (rabbits [5]; rabbit, in vivo): 2.9 +/- 0.5 and 2.8 +/- 0.2 and 2.7 +/- 0.2

- IC50 (progestin receptor (hPR)): 3200 pM
- EC50 (Human T-47D breast cells [1]): 300 pM
SMILES: COC[C@]1(C(C)=O)CC[C@H]2[C@@H]3CCC4=CC(=O)CCC4=C3[C@@H](c3ccc(N(C)C)cc3)C[C@@]21C [I 4-Me2 N H O H --CH2 OCH3 H, 11β-(4-(N,N-dimethylamino)phenyl)-17α-methoxymethyl-19-norpregna-4,9-diene-3,20-dione]
- Emax (Human T-47D breast cells [1]): 106%
- McPhail Index, McGinty Assay (Agonist) (rabbits [2]; dose 0.3 micrograms): 1.3 +/- 0.5
- McPhail Index, McGinty Assay (Agonist) (rabbits [2]; dose 3 micrograms): 1.8 +/- 0.6
- McPhail Index, McGinty Assay (Agonist) (rabbits [2]; dose 30 micrograms): 1.3 +/- 0.8
- Emax (Human T-47D breast cells [4]): 12%
- McPhail Index, McGinty Assay (Antagonist) (rabbits [5]; rabbit, in vivo): 3.2 +/- 0.1 and 1.7 +/- 0.8 and 1.7 +/- 0.3

- IC50 (progestin receptor (hPR)): 24000 pM
- EC50 (Human T-47D breast cells [1]): 6400 pM
SMILES: CC(=O)[C@@]1(OC(=O)c2ccccc2)CC[C@H]2[C@@H]3CCC4=CC(=O)CCC4=C3[C@@H](c3ccc(N(C)C)cc3)C[C@@]21C [I 4-Me2 N H O H --O--CO--C6 H5 H, 11β-[4-(N,N-Dimethylamino)phenyl]-17α-benzoyloxy-19-norpregna-4,9-diene-3,20-dione]
- Emax (Human T-47D breast cells [1]): 69%
- McPhail Index, McGinty Assay (Agonist) (rabbits [2]; dose 0.3 micrograms): 0 +/- 0
- McPhail Index, McGinty Assay (Agonist) (rabbits [2]; dose 3 micrograms): 0 +/- 0
- McPhail Index, McGinty Assay (Agonist) (rabbits [2]; dose 30 micrograms): 0 +/- 0
- Emax (Human T-47D breast cells [4]): 18%

- IC50 (progestin receptor (hPR)): 26000 pM
SMILES: CC(=O)[C@@]1(O)CC[C@H]2[C@@H]3CCC4=CC(=O)CCC4=C3[C@@H](c3ccc(N(C)C)cc3)C[C@@]21C [I 4-Me2 N H O H --OH H]
- Emax (Human T-47D breast cells [1]): 29%
- McPhail Index, McGinty Assay (Agonist) (rabbits [2]; dose 0.3 micrograms): 0 +/- 0
- McPhail Index, McGinty Assay (Agonist) (rabbits [2]; dose 3 micrograms): 0 +/- 0
- McPhail Index, McGinty Assay (Agonist) (rabbits [2]; dose 30 micrograms): 0 +/- 0
- Emax (Human T-47D breast cells [4]): 4%
- McPhail Index, McGinty Assay (Antagonist) (rabbits [5]; dose 0.3 micrograms, plus progesterone): 2.8 +/- 0
- McPhail Index, McGinty Assay (Antagonist) (rabbits [5]; dose 3 micrograms, plus progesterone): 2.4 +/- 0.4
- McPhail Index, McGinty Assay (Antagonist) (rabbits [5]; dose 30 micrograms, plus progesterone): 2.1 +/- 0.4

- IC50 (progestin receptor (hPR)): 600 pM
- EC50 (Human T-47D breast cells [1]): 300 pM
SMILES: CC[C@]1(C(C)=O)CC[C@H]2[C@@H]3CCC4=CC(=O)CCC4=C3[C@@H](c3ccc(N(C)C)cc3)C[C@@]21C [I 4-Me2 N H O H C2 H5 H, 11β-[4-(N,N-dimethylamino)phenyl]-17α-ethyl-19-norpregna-4,9-diene-3,20-dione]
- Emax (Human T-47D breast cells [1]): 110%
- McPhail Index, McGinty Assay (Agonist) (rabbits [2]; dose 0.3 micrograms): 0.2 +/- 0.1
- McPhail Index, McGinty Assay (Agonist) (rabbits [2]; dose 3 micrograms): 0.3 +/- 0.2
- McPhail Index, McGinty Assay (Agonist) (rabbits [2]; dose 30 micrograms): 0.3 +/- 0.26
- Emax (Human T-47D breast cells [4]): 8%

- IC50 (progestin receptor (hPR)): 10600 pM
- EC50 (Human T-47D breast cells [1]): 8900 pM
SMILES: CC(=O)OC[C@]1(C(C)=O)CC[C@H]2[C@@H]3CCC4=CC(=O)CCC4=C3[C@@H](c3ccc(N(C)C)cc3)C[C@@]21C [I 4-Me2 N H O H CH2 --O--CO--CH3 H]
- Emax (Human T-47D breast cells [1]): 92%
- McPhail Index, McGinty Assay (Agonist) (rabbits [2]; dose 0.3 micrograms): 0 +/- 0
- McPhail Index, McGinty Assay (Agonist) (rabbits [2]; dose 3 micrograms): 0.6 +/- 0.2
- McPhail Index, McGinty Assay (Agonist) (rabbits [2]; dose 30 micrograms): 1.0 +/- 0.1
- Emax (Human T-47D breast cells [4]): 20%
- McPhail Index, McGinty Assay (Antagonist) (rabbits [5]; rabbit, in vivo): 3.4 +/- 0.1 and 2.6 +/- 0.2 and 2.0 +/- 0.2

- IC50 (progestin receptor (hPR)): 700 pM
- EC50 (Human T-47D breast cells [1]): 400 pM
SMILES: COC(=O)[C@]1(C(C)=O)CC[C@H]2[C@@H]3CCC4=CC(=O)CCC4=C3[C@@H](c3ccc(N(C)C)cc3)C[C@@]21C [I 4-Me2 N H O H COOCH3 H, 17α-carbomethoxy-11β-(4-(N,N-dimethylamino)phenyl)-19-norpregna-4,9-diene-3,20-dione]
- Emax (Human T-47D breast cells [1]): 92%
- McPhail Index, McGinty Assay (Agonist) (rabbits [2]; dose 0.3 micrograms): 0 +/- 0
- McPhail Index, McGinty Assay (Agonist) (rabbits [2]; dose 3 micrograms): 0 +/- 0
- McPhail Index, McGinty Assay (Agonist) (rabbits [2]; dose 30 micrograms): 0.07 +/- 0.07
- Emax (Human T-47D breast cells [4]): 24%
